“And” between values parts separate entries of the source, which are not always exact repeats. Identical values can stand only once. Like-named read-outs stand apart in the source and are kept apart here.
Test system: Microglial cells
Test: Dose response inhibition of NO release from microglia, 0.75-200 μM (Example 8)
Format: cell-based
Method in brief: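 Microglia plated at 1×10^5 cells/ml, stimulated with LPS/IFNγ and treated at 0.75, 1.56, 3.125, 6.25, 12.5, 25, 50, 100 and 200 μM. NO release measured after 48 hours by Griess reaction.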

[1] = dose 0.75 μM, 48 hours, single replicates
[2] = dose 1.56 μM, 48 hours, single replicates
[3] = dose 3.125 μM, 48 hours, single replicates
[4] = dose 6.25 μM, 48 hours, single replicates
[5] = dose 12.5 μM, 48 hours, single replicates
[6] = dose 25 μM, 48 hours, single replicates
[7] = dose 50 μM, 48 hours, single replicates
[8] = dose 100 μM, 48 hours, single replicates
[9] = dose 200 μM, 48 hours, single replicates

Work on `O=C(NCc1ccc(O)c(O)c1)C(=Cc1ccc(O)c(O)c1)NC(=O)c1ccc(O)c(O)c1` [Compound 21, α-(3,4-dihydroxybenzamido)-3,4-dihydroxycinnamic acid 3,4-dihydroxybenzyl amide] yielded an inhibition at 0.75 µM (Microglia, 48 h, dose 0.75 μM) of -15.5%, an inhibition at 1.56 µM (Microglia, 48 h, dose 1.56 μM) of -6.58% and an inhibition at 3.125 µM (Microglia, 48 h, dose 3.125 μM) of -6.05%. It also gave an inhibition at 6.25 µM (Microglia, 48 h, dose 6.25 μM, 48 hours, read-out: Avg % Inhibition) of -1.84%, an inhibition at 12.5 µM (Microglia, 48 h, dose 12.5 μM, 48 hours, read-out: Avg % Inhibition) of 5% and an inhibition at 25 µM (Microglia, 48 h, dose 25 μM, 48 hours, read-out: Avg % Inhibition) of 2.9%. It also gave an inhibition at 50 µM (Microglia, 48 h, dose 50 μM, 48 hours, read-out: Avg % Inhibition) of 13.7%, an inhibition at 50 µM (Microglia, 48 h, dose 50 μM, 48 hours, single replicates, read-out: % inhibition) of 16.3% and an inhibition at 100 µM (Microglia, 48 h, dose 100 μM, 48 hours, read-out: Avg % Inhibition) of 33.7%. For the same compound, the inhibition at 100 µM (Microglia, 48 h, dose 100 μM, 48 hours, single replicates, read-out: % inhibition) was 33.7%, the inhibition at 200 µM (Microglia, 48 h, dose 200 μM, 48 hours, read-out: Avg % Inhibition) was 69% and the inhibition at 200 µM (Microglia, 48 h, dose 200 μM, 48 hours, single replicates, read-out: % inhibition) was 67.6%. For the same compound, the “μM NO release Avg” value (dose 0.75 μM, 48 hours) was 22.865 µM, the “% inhibition” value [1] was −16.05% and −17.63% and −12.89% and the “OD values (printed under head μM NO release)” value [1] was 0.195 and 0.199 and 0.201. For the same compound, the “μM NO release” value [1] was 22.344 µM and 22.969 µM and 23.281 µM, the “μM NO release Avg” value (dose 1.56 μM, 48 hours) was 21.094 µM and the “% inhibition” value [2] was −8.16% and −9.74% and −1.84%. For the same compound, the “OD values (printed under head μM NO release)” value [2] was 0.181 and 0.189 and 0.191, the “μM NO release” value [2] was 20.156 µM and 21.406 µM and 21.719 µM and the “μM NO release Avg” value (dose 3.125 μM, 48 hours) was 20.990 µM. The “% inhibition” value [3] was −4.21% and −8.16% and −5.79%, the “OD values (printed under head μM NO release)” value [3] was 0.186 and 0.184 and 0.189 and the “μM NO release” value [3] was 20.938 µM and 20.625 µM and 21.406 µM. For the same compound, the “μM NO release Avg” value (dose 6.25 μM, 48 hours) was 20.156 µM, the “% inhibition” value [4] was 2.89% and −3.42% and the “OD values (printed under head μM NO release)” value [4] was 0.183 and 0.175 and 0.185. For the same compound, the “μM NO release” value [4] was 20.469 µM and 19.219 µM and 20.781 µM, the “μM NO release Avg” value (dose 12.5 μM, 48 hours) was 18.802 µM and the “% inhibition” value [5] was 5.26% and −4.21% and 13.95%. The “OD values (printed under head μM NO release)” value [5] was 0.161 and 0.172 and 0.184, the “μM NO release” value [5] was 17.031 µM and 18.750 µM and 20.625 µM and the “μM NO release Avg” value (dose 25 μM, 48 hours) was 19.219 µM. The “% inhibition” value [6] was 7.63% and 1.32% and −0.26%, the “OD values (printed under head μM NO release)” value [6] was 0.179 and 0.169 and 0.177 and the “μM NO release” value [6] was 19.844 µM and 18.281 µM and 19.531 µM. For the same compound, the “μM NO release Avg” value (dose 50 μM, 48 hours) was 17.083 µM, the “% inhibition” value [7] was 10.79% and 13.95% and the “OD values (printed under head μM NO release)” value [7] was 0.161 and 0.158 and 0.165. For the same compound, the “μM NO release” value [7] was 17.031 µM and 16.563 µM and 17.656 µM, the “μM NO release Avg” value (dose 100 μM, 48 hours) was 13.125 µM and the “OD values (printed under head μM NO release)” value [8] was 0.136. The “μM NO release” value [8] was 13.125 µM, the “Avg % Inhibition” value (dose 200 μM, 48 hours) was 69.211% and the “μM NO release Avg” value (dose 200 μM, 48 hours) was 6.094 µM. For the same compound, the “% inhibition” value [9] was 68.42% and 71.58%, the “OD values (printed under head μM NO release)” value [9] was 0.087 and 0.093 and 0.092 and the “μM NO release” value [9] was 5.625 µM and 6.41 µM. For the same compound, the “inhibition of NO release, in words” value (dose response 0.75-200 μM) was “effective inhibitors of NO release”.

From patent US20070208087A1, “Compounds, compositions and methods for the treatment of inflammatory diseases” (priority 2001, published 2007)
